Measured values published in PMC3961306, “Comparison of the Cancer Gene Targeting and Biochemical Selectivities of All Targeted Kinase Inhibitors Approved for Clinical Use” (PLoS ONE, 2014).

What was measured:
Experiment in all cases: Kinase profiling in a biochemical assay panel (mobility shift assays and ELISA), %-inhibition at 1 μM; selectivity entropy
[1] = biological target: panel of more than 300 wild-type and mutant kinases (313 kinase panel) (Homo sapiens, UniProt Q9BYP7); settings: kinase WNK3; compound at 1 μM
[2] = biological target: T1, panel of more than 300 wild-type and mutant kinases (313 kinase panel) (Homo sapiens, UniProt P54753)
T1 sequence (P54753 34-998): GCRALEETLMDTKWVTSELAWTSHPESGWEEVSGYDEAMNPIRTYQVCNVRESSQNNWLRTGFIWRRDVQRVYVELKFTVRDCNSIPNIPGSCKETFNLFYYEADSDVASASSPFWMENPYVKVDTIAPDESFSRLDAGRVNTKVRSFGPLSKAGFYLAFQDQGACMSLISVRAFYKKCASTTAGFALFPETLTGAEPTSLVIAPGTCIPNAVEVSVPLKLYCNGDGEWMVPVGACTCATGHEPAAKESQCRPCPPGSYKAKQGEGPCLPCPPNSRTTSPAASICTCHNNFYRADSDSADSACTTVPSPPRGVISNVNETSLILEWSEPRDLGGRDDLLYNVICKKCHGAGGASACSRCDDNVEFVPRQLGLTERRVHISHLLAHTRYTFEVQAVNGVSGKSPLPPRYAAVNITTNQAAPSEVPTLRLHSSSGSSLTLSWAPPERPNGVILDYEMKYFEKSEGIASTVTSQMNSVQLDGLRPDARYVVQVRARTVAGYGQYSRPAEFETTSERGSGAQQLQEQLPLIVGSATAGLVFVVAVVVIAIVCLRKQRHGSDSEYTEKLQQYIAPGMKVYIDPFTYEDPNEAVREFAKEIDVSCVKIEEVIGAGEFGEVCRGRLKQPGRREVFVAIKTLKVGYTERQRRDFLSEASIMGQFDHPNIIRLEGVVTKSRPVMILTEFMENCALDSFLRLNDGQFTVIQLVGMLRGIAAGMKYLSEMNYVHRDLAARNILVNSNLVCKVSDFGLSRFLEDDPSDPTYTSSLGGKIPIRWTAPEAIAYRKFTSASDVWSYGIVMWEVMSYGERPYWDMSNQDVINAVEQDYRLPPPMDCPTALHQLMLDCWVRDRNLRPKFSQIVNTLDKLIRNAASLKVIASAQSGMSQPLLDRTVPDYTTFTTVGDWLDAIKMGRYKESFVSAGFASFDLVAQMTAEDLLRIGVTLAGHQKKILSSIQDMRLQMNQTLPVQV

[3] = biological target: panel of more than 300 wild-type and mutant kinases (313 kinase panel) (Homo sapiens, UniProt P31749)
[4] = biological target: T2, panel of more than 300 wild-type and mutant kinases (313 kinase panel) (Homo sapiens, UniProt Q8IW41)
T2 sequence (Q8IW41 1-473): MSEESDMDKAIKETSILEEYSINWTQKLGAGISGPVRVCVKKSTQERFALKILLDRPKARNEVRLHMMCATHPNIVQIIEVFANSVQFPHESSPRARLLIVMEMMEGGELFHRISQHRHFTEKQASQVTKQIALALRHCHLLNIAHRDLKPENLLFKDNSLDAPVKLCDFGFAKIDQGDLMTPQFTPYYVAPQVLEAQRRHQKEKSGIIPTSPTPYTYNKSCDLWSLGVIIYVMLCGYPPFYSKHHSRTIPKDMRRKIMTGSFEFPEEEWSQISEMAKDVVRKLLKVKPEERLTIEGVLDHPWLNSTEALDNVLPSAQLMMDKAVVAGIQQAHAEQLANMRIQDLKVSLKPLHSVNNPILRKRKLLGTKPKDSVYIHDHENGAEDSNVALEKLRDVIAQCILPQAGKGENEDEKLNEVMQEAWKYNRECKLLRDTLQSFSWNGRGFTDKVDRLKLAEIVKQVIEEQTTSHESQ

[5] = biological target: T3, panel of more than 300 wild-type and mutant kinases (313 kinase panel) (Homo sapiens, UniProt Q12866)
T3 sequence (Q12866 21-999): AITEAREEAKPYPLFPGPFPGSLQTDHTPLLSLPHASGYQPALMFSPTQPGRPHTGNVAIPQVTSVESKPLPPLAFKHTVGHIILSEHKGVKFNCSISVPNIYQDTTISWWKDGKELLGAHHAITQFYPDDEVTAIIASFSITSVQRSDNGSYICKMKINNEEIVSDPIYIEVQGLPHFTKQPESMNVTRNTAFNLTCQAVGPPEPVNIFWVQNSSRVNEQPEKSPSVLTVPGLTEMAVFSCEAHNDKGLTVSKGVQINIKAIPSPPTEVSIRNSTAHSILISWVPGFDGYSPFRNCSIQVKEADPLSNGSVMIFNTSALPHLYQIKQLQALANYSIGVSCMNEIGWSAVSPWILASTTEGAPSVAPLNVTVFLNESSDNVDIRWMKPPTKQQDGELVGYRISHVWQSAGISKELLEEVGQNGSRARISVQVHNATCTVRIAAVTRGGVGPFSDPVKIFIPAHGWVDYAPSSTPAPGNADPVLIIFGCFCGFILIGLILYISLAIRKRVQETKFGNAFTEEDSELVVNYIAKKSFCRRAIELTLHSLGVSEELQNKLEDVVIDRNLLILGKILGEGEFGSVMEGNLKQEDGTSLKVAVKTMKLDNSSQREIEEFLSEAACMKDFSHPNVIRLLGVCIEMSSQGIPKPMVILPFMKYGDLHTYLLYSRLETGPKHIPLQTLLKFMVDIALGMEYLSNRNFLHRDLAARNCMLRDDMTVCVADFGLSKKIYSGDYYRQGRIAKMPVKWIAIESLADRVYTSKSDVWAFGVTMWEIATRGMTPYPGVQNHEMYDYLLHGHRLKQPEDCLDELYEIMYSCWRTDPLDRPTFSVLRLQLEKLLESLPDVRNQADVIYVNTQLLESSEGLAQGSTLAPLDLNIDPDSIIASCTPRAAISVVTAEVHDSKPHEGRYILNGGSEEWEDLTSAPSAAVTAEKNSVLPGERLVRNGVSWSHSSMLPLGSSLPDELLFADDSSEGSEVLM

[6] = biological target: panel of more than 300 wild-type and mutant kinases (313 kinase panel) (Homo sapiens, UniProt P22455, V550E); settings: kinase FGFR4(V550E); compound at 1 μM
[7] = kinase MAPKAPK5, compound at 1 μM

Chain of panel of more than 300 wild-type and mutant kinases (313 kinase panel) (Homo sapiens, UniProt Q9BYP7) (Q9BYP7 whole entry, change not shown): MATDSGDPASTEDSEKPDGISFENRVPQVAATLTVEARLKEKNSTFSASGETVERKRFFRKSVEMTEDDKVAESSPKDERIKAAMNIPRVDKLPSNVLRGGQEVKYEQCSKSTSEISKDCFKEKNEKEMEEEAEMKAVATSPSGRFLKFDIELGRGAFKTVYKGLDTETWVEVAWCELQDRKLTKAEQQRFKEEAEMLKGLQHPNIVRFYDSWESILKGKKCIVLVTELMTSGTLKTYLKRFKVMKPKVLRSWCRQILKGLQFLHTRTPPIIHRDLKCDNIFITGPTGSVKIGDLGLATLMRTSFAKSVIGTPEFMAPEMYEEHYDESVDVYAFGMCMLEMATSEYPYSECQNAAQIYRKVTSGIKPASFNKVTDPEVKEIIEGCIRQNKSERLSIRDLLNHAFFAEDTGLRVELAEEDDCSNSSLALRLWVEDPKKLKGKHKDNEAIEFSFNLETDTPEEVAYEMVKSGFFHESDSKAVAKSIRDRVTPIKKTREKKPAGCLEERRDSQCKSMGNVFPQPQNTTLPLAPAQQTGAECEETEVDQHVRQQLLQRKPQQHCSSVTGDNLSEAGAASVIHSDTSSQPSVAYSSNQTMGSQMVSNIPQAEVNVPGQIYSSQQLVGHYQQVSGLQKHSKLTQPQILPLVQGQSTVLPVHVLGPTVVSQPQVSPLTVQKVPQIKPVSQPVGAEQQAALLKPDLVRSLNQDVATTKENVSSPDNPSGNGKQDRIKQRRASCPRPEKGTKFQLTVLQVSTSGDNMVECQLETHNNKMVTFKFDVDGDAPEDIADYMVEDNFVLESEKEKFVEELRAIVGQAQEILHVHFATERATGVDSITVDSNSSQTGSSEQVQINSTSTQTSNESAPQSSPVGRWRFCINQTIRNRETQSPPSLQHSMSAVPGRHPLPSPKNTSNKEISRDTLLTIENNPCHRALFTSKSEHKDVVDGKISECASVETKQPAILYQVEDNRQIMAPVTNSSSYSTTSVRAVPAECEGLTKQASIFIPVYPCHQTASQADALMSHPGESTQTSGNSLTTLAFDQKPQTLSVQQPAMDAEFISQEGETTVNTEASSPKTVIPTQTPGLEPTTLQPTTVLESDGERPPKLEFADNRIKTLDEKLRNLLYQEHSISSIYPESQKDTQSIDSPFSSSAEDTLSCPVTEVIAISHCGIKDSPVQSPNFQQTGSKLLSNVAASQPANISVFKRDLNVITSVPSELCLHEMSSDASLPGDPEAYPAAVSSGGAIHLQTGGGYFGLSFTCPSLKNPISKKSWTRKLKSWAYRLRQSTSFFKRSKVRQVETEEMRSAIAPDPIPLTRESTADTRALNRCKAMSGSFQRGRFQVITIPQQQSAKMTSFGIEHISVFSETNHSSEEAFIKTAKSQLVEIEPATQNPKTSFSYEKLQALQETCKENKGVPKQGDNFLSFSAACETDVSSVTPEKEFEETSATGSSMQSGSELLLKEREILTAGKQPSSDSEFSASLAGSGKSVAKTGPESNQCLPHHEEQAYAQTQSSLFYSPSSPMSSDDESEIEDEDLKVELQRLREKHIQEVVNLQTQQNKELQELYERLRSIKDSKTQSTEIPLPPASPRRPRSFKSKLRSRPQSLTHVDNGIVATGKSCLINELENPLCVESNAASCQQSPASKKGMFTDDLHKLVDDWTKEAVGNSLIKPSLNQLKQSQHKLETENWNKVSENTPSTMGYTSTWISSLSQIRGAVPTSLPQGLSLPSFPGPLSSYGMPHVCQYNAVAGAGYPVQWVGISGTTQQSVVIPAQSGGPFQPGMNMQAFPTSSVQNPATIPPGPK
Chain of panel of more than 300 wild-type and mutant kinases (313 kinase panel) (Homo sapiens, UniProt P31749) (P31749 whole entry, change not shown): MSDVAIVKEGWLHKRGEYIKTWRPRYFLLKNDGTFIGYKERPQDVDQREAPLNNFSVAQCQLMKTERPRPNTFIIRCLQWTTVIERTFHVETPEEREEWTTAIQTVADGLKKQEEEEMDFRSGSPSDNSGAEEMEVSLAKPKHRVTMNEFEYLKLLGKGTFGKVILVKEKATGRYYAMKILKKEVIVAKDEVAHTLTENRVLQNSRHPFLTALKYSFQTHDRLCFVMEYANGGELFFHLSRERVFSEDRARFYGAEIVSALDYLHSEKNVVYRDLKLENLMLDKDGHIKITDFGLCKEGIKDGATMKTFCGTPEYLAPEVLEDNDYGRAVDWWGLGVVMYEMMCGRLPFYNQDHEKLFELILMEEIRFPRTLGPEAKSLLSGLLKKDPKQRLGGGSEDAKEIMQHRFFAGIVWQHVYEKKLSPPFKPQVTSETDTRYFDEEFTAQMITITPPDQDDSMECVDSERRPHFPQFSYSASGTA
Chain of panel of more than 300 wild-type and mutant kinases (313 kinase panel) (Homo sapiens, UniProt P22455, V550E) (P22455 22-802 V550E): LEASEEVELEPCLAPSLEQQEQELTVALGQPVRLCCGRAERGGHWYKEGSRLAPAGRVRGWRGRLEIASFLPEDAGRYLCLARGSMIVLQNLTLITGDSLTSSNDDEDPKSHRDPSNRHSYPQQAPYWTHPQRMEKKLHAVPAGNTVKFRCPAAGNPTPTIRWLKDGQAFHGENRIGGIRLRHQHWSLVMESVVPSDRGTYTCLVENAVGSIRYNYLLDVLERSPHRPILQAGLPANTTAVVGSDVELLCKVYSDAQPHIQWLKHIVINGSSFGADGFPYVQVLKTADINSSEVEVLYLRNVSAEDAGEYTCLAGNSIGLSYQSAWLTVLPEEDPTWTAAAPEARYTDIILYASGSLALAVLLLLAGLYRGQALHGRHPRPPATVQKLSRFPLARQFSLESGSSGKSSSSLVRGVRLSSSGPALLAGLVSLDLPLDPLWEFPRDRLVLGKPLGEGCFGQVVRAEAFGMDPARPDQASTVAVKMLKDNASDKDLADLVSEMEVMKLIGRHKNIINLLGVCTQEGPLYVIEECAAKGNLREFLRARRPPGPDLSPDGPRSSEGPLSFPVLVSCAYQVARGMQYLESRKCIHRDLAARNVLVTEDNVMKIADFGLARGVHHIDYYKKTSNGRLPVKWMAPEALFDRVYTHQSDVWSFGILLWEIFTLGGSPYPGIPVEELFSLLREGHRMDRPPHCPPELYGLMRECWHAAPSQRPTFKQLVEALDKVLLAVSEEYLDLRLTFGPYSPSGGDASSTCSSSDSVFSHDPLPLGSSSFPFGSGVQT

SMILES	%-inhibition of WNK3 [1] [%]	%-inhibition of EPHB3 ([2]; kinase EPHB3, compound at 1 μM) [%]	%-inhibition, AKT1 ([3]; kinase AKT1, 1 μM compound) [%]	%-inhibition of MAPKAPK5 [4, 7] [%]	%-inhibition of MER ([5]; kinase MER, compound at 1 μM) [%]	%-inhibition of FGFR4(V550E) [6] [%]	%-inhibition of EPHB3 ([2]; 1 µM) [%]	%-inhibition of MAPKAPK5 ([4]; 1 µM) [%]	%-inhibition of MER ([5]; 1 µM) [%]	%-inhibition, AKT1 ([3]; 1 µM) [%]
Cc1cn(-c2cc(NC(=O)c3ccc(C)c(Nc4nccc(-c5cccnc5)n4)c3)cc(C(F)(F)F)c2)cn1 [nilotinib]	-7	92	11	-4.26	-46					
CS(=O)(=O)CCNCc1ccc(-c2ccc3ncnc(Nc4ccc(OCc5cccc(F)c5)c(Cl)c4)c3c2)o1 [lapatinib]		5	2.63	-2.68	6					
CNC(=O)c1cc(Oc2ccc(NC(=O)Nc3ccc(Cl)c(C(F)(F)F)c3)c(F)c2)ccn1 [regorafenib]	-10	22	-5.68	-9	29	-0.119				
Cc1ccc(Nc2nccc(N(C)c3ccc4c(C)n(C)nc4c3)n2)cc1S(N)(=O)=O [pazopanib]	8	-0.529	-2	-4	34					
N#CC[C@H](C1CCCC1)n1cc(-c2ncnc3[nH]ccc23)cn1 [ruxolitinib]	-8		-5			5	2.73	-4.52	-0.749	
CO[C@H]1C[C@@H]2CC[C@@H](C)[C@@](O)(O2)C(=O)C(=O)N2CCCC[C@H]2C(=O)O[C@H]([C@H](C)C[C@@H]2CC[C@@H](OCCO)[C@H](OC)C2)CC(=O)[C@H](C)/C=C(\C)[C@@H](O)[C@@H](OC)C(=O)[C@H](C)C[C@H](C)/C=C/C=C/C=C/1C [everolimus]	-12	-5	-7	-9	-4.24	-4.41				
CC(=O)Nc1cccc(-n2c(=O)n(C3CC3)c(=O)c3c(Nc4ccc(I)cc4F)n(C)c(=O)c(C)c32)c1 [trametinib]	1		-3	-2.22	-6.62	-3.28	-5.47			
COc1cc(Nc2c(C#N)cnc3cc(OCCCN4CCN(C)CC4)c(OC)cc23)c(Cl)cc1Cl [bosutinib]	13			0		-3.46				-5.47
CO[C@H]1C[C@@H]2CC[C@@H](C)[C@@](O)(O2)C(=O)C(=O)N2CCCC[C@H]2C(=O)O[C@H]([C@H](C)C[C@@H]2CC[C@@H](OC(=O)C(C)(CO)CO)[C@H](OC)C2)CC(=O)[C@H](C)/C=C(\C)[C@@H](O)[C@@H](OC)C(=O)[C@H](C)C[C@H](C)/C=C/C=C/C=C/1C [temsirolimus]	-13	-13	-4	-9	-3.24	-0.119				
